For assay [1], the system named is PMA-stimulated P90RSK(Ser380) phosphorylation. The assay can be described thus: Cellular P90RSK(Ser380) Phosphorylation Assay. In kind it is cell-based. The note with it: Homo sapiens; HepG2 cells, 1.5 h compound incubation, PMA 100ng/mL 30 min, normalized to GAPDH signal; single assay or mean of multiple assays. On the procedure:
Cellular P90RSK(Ser380) Phosphorylation Assay
Inhibition of PMA-stimulated P90RSK(Ser380) phosphorylation was determined by the following in vitro cellular mechanistic assay, which comprises incubating cells with a compound for 1.5 h and quantifying fluorescent pP90RSK(Ser380) signal on fixed cells and normalizing to GAPDH signal.
Materials and Methods: HepG2 cells were obtained from ATCC and grown in DMEM supplemented with 10% fetal bovine serum. Cells were plated in 96-well plates at 35,000 cells/well and allowed to attach overnight at 37 °C/5% CO2. Diluted compounds were then added at a final concentration of 0.5% DMSO. After 1.5 h compound incubation, cells were stimulated with the addition of PMA (phorbol 12-myristate 13-acetate) at a final concentration of 100ng/mL; the PMA stimulation was a 30-min incubation at 37 °C/5% CO2. After the 30-minute PMA stimulation, cells were washed with PBS and fixed in 3.7% formaldehyde in PBS at room temperature for 15-20 min. This was followed by another wash in PBS and then permeabilization in 100% MeOH at room temperature for 10-15 min. Following the permeabilization incubation, cells were washed in PBS/0.05% Tween-20, followed by a block in Odyssey blocking buffer (LI-COR Biosciences) for at least 1 hour. Antibodies to phosphorylated P90RSK(Ser380) (Cell Signaling #9335, rabbit monoclonal) and GAPDH (Fitzgerald 10R-G109a, mouse monoclonal) were added to the cells and incubated overnight at 4 °C. pP90RSK(Ser380) antibody was used at a 1:250 dilution; GAPDH was used at a 1:10,000 dilution. After washing with PBS/0.05% Tween-20, the cells were incubated with fluorescently-labeled secondary antibodies (Anti-rabbit-Alexa Flour680, Invitrogen Cat#A21109; Anti-mouse-IRDye800CW, Rockland Inc. Cat#610-131-121) for 1 h. Both secondary antibodies were used at a 1:1000 dilution. Cells were then washed and analyzed for fluorescence at both wavelengths using the Odyssey Infrared Imaging System (LI-COR Biosciences). Phosphorylated P90RSK(Ser380) signal was normalized to GAPDH signal. Representative data is in TABLE III (infra). The reported IC50 may be from a single assay or the mean of multiple assays.

For assay [2], the target named is T1, human ERK-2 (Mitogen Activated Kinase 1) (Homo sapiens, UniProt P28482).
T1 construct: N-terminal 6-His fusion protein in E. coli and corresponding to aa 8-360; 6-His (N); made in house; host or cells: E. coli
T1 sequence (P28482 8-360): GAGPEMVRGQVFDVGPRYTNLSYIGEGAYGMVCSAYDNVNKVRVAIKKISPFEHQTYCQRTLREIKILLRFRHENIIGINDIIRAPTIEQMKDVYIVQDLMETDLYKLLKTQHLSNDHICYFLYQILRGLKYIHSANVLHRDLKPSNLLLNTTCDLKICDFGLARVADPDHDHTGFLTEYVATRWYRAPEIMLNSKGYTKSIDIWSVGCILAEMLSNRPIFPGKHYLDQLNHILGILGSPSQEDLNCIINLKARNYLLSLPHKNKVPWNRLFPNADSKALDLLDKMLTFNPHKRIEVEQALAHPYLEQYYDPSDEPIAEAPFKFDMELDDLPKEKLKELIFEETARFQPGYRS
Put plainly: ERK-2 Enzymatic Assay. The conditions noted are these: 5nM ERK-2 enzyme, 25µM ATP, S/T17 peptide substrate, single assay or mean of multiple assays. In kind it is biochemical. In outline: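 Values are single or averaged runs. Reactions used E. coli-expressed 6-His ERK-2 aa 8-360 and Omnia S/T17 peptide substrate at ambient temperature.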

`C[C@H](Nc1ncc2ccc(C(=O)N[C@@H](c3ccc(Cl)c(F)c3)[C@@H]3CCCN3)cc2n1)C(F)(F)F` [Compound I-40, 2-((S)-2,2,2-trifluoro-1-methyl-ethylamino)-quinazoline-7-carboxylic acid [(S)-(4-chloro-3-fluoro-phenyl)-(S)-pyrrolidin-2-yl-methyl]-amide]: the half-inhibitory concentration (IC50) in assay [1] was determined as 2900 nM; in assay [2] (TABLE I), 7.3 nM.
Taken in the same sequence, the figures for `Cn1cc([C@@H](NC(=O)c2ccc3cnc(NC4CCOCC4)nc3c2)c2ccc(OC(F)F)cc2)cn1` [Compound I-41, 2-(tetrahydropyran-4-ylamino)-quinazoline-7-carboxylic acid [(S)-(4-difluoromethoxy-phenyl)-(1-methyl-1H-pyrazol-4-yl)-methyl]-amide] were 115 nM and 0.55 nM.
For `Cn1cc([C@@H](NC(=O)c2ccc3cnc(N[C@@H]4CCO[C@H](CO)C4)nc3c2)c2ccc(Cl)c(F)c2)cn1` [Compound I-47, N-((S)-(4-chloro-3-fluorophenyl)(1-methyl-1H-pyrazol-4-yl)methyl)-2-((2S,4R)-2-(hydroxymethyl)tetrahydro-2H-pyran-4-ylamino)quinazoline-7-carboxamide], in that order: 29 nM and 1.4 nM.
For `COc1ccc([C@H](NC(=O)c2cc(F)c3cnc(NCC4CC4)nc3c2)c2cnn(C)c2)cc1F` [Compound I-60, 2-(Cyclopropylmethyl-amino)-5-fluoro-quinazoline-7-carboxylic acid [(S)-(3-fluoro-4-methoxy-phenyl)-(1-methyl-1H-pyrazol-4-yl)-methyl]-amide], the figures for the IC50 in assay [1] and in assay [2] (TABLE I) were 334 nM and 6 nM, respectively.
On to `COc1ccc([C@H](NC(=O)c2cc(F)c3cnc(N[C@@H]4CCOC4)nc3c2)c2cnn(C)c2)cc1F` [Compound I-61, 5-Fluoro-N-((S)-(3-fluoro-4-methoxyphenyl)(1-methyl-1H-pyrazol-4-yl)methyl)-2-((R)-tetrahydrofuran-3-ylamino)quinazoline-7-carboxamide], for which the IC50 in assay [1] was found to be 66 nM; in assay [2] (TABLE I), 2 nM.
In assay [1], `COc1ccc([C@H](NC(=O)c2cc(F)c3cnc(N[C@H]4CC[C@H](O)CC4)nc3c2)c2cnn(C)c2)cc1F` [II-13] had an IC50 of 84.4 nM.
For the compound `O=C(N[C@@H](c1ccc(OC(F)(F)F)c(F)c1)[C@H]1CCCNC1)c1ccc2cnc(NC3CCOCC3)nc2c1` [II-44], in assay [2] (TABLE II), the half-inhibitory concentration (IC50) came to 216 nM.
On the same count and under the same terms, to `O=C(N[C@@H](c1ccc(OC(F)(F)F)c(F)c1)C1CNCCO1)c1ccc2cnc(NC3CCOCC3)nc2c1` (stereo partly shown) [II-45] belongs 6.9 nM; to `COc1ccc([C@H](NC(=O)c2cc(F)c3cnc(NC4CCOCC4)nc3c2)c2cncn2C)cc1F` [II-46], 1.1 nM.
Same read-out and setting: to `COc1ccc([C@H](NC(=O)c2cc(F)c3cnc(NC4CCOCC4)nc3c2)c2cnco2)cc1F` [II-47] belongs 1.3 nM.
The same measure, in the same setting: with `COc1ccc([C@H](NC(=O)c2cc(F)c3cnc(NC4CCOCC4)nc3c2)c2cnnn2C)cc1F` [II-48] the figure was 1.4 nM.
For `COc1ccc([C@H](NC(=O)c2cc(F)c3cnc(NC4CCOCC4)nc3c2)c2cn(C)cn2)cc1F` [II-49], half-maximal inhibition in assay [2] (TABLE II) (IC50) was put at 85.5 nM.
Same read-out and setting: to `COc1ccc([C@H](NC(=O)c2cc(F)c3cnc(NC4CCOCC4)nc3c2)c2ncc[nH]2)cc1F` [II-50] belongs 59.1 nM; to `COc1ccc([C@H](NC(=O)c2cc(F)c3cnc(NC4CCOCC4)nc3c2)c2c[nH]c(C)n2)cc1F` [II-51], 164 nM.
Same read-out and setting: with `COc1ccc([C@H](NC(=O)c2cc(F)c3cnc(NC4CCOCC4)nc3c2)c2nccn2C)cc1F` [II-52] the figure was 1.9 nM; with `COc1ccc([C@H](NC(=O)c2cc(F)c3cnc(Nc4ccnn4C)nc3c2)c2cncn2C)cc1F` [II-53], 1.5 nM; with `COc1ccc([C@H](NC(=O)c2cc(F)c3cnc(Nc4ccnn4C)nc3c2)c2nccn2C)cc1F` [II-54], 8.5 nM.

As usually defined, the IC50 is the concentration that inhibits the measured activity by half. The low end stands for higher potency, the high end for lower potency.

(Values after EP2739618B1, “QUINAZOLINE COMPOUNDS AS SERINE/THREONINE KINASE INHIBITORS” (Array Biopharma, Inc., priority 2011, dated 2013).)
